Measurements taken from ChEMBL document CHEMBL3860089, “Design, synthesis, and biological evaluation of α-hydroxyacyl-AMS inhibitors of amino acid adenylation enzymes” (Bioorg Med Chem Lett, 2016).

Columns and labels:
[1] = target: T1, Yersiniabactin biosynthetic protein (Yersinia pestis, UniProt A0A2S9PH42)
[2] = target: T1, Yersiniabactin biosynthetic protein; details: read-out: Ki(app)
[3] = Inhibition of aminoacyl tRNA synthetase in T7 coupled rabbit reticulocyte lysate assessed as reduction in transcription/translation of luciferase template DNA propagated in Escherichia coli DH5alpha after 90 mins; design: species or system Oryctolagus cuniculus
[4] = Drug uptake in Bacillus subtilis ATCC 6051 at 100 uM by LC-MS/Ms analysis; type: ADME
[5] = Drug uptake in Mycobacterium smegmatis ATCC 700084 at 100 uM by LC-MS/Ms analysis; type: ADME; details: mycolicibacterium smegmatis
[6] = Drug uptake in Escherichia coli ATCC 25922 at 100 uM by LC-MS/Ms analysis; type: ADME; details: escherichia coli atcc 25922, 100 µM

T1 sequence (A0A2S9PH42 whole entry): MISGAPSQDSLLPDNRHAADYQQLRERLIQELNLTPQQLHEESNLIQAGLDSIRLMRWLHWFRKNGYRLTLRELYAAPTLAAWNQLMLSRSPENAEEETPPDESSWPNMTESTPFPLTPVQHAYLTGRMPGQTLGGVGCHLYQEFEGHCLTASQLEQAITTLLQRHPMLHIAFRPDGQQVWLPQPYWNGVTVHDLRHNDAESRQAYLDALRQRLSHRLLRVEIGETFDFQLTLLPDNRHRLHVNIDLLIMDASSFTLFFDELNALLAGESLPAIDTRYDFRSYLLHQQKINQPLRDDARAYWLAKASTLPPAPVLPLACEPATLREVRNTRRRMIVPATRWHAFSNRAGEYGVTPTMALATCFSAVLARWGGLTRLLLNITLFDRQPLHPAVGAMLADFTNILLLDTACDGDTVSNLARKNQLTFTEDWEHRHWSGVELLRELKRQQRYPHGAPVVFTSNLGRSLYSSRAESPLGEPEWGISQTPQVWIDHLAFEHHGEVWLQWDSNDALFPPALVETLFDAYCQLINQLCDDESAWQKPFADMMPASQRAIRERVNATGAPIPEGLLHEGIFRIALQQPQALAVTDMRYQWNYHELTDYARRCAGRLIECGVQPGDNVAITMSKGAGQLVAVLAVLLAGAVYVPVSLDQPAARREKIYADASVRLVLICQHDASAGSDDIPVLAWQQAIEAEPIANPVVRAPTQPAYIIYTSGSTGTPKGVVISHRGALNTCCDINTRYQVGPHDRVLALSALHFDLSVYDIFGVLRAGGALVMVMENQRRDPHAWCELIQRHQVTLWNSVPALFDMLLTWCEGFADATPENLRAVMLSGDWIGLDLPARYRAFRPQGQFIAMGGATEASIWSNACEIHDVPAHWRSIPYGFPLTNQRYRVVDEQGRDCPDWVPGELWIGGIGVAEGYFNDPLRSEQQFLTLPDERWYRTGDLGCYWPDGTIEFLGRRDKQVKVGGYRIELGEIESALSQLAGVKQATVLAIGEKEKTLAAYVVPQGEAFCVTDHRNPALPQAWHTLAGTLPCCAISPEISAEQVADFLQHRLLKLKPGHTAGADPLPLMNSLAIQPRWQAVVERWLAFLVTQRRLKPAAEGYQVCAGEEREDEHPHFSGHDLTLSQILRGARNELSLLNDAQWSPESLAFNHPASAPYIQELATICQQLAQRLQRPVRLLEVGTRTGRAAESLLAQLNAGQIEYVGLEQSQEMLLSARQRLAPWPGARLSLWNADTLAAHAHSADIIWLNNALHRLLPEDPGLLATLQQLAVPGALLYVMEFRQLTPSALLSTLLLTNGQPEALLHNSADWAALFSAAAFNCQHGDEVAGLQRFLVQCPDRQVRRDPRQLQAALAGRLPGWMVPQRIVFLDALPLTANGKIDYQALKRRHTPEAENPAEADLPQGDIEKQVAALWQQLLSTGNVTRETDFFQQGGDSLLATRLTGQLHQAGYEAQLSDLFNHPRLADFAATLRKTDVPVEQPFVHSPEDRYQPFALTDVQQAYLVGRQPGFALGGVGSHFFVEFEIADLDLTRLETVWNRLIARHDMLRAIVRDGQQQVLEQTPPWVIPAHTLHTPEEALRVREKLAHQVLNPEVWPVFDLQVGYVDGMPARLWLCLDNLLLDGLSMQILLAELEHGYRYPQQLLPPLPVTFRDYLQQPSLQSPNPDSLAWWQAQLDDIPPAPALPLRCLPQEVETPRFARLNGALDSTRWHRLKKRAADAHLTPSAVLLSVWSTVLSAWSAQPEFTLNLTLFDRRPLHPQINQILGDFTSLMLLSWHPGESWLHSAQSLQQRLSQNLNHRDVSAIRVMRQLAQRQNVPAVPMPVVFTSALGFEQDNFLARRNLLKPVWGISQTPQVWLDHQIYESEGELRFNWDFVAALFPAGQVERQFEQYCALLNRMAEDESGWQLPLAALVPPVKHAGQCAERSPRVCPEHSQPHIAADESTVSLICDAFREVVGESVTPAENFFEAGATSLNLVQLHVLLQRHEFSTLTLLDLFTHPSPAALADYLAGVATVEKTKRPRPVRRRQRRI

Compound	IC50 [1] [µM]	Ki [2] [µM]	IC50 [3] [µM]	Drug uptake [4] [µM]	Drug uptake [5] [µM]	Drug uptake [6] [µM]	Drug uptake ([4]; BLD = below limit of detection)	Drug uptake ([5]; BLD = below limit of detection)	Drug uptake ([6]; BLD = below limit of detection)
Nc1ncnc2c1ncn2[C@@H]1O[C@H](COS(=O)(=O)NC(=O)[C@@H](N)CS)[C@@H](O)[C@H]1O	0.04	0.24	3.27						
C[C@H](O)C(=O)NS(=O)(=O)OC[C@H]1O[C@@H](n2cnc3c(N)ncnc32)[C@H](O)[C@@H]1O	> 1000		166	28 to 53	28 to 53	28 to 53			
Nc1ncnc2c1nc1n2[C@@H]2O[C@H](COS(=O)(=O)NC(=O)[C@@H](N)CCC1)[C@@H](O)[C@H]2O	0.34	1.7	> 250						
Nc1ncnc2c1ncn2[C@@H]1O[C@H](COS(=O)(=O)NC(=O)[C@@H](O)CS)[C@@H](O)[C@H]1O	16.5		222						
Nc1ncnc2c1nc1n2[C@@H]2O[C@H](COS(=O)(=O)NC(=O)[C@@H](O)CCC1)[C@@H](O)[C@H]2O	> 1000		> 250						
C[C@H](N)C(=O)NS(=O)(=O)OC[C@H]1O[C@@H](n2cnc3c(N)ncnc32)[C@H](O)[C@@H]1O [ALASA]	1.15	2.5	0.118 to 0.16				Bld	Bld	Bld
